Each structure is given as a SMILES string.

Type in all cases: functional
The nature of experiment [1]: Antioxidant activity assessed as residual ABTS cationic radical scavenging activity at 1.5 mM after 30 mins relative to control.
The test system of experiment [2] is Radical scavenging activity. Nature of the experiment: Antioxidant activity assessed as residual DPPH radical scavenging activity at 1.5 mM after 30 mins relative to control.
Experiment [3] is described as follows: Antioxidant activity against hydroxyl radical-induced DNA damage assessed as TBARS production at 400 uM after 30 mins relative to control.
Experiment [4] can be described thus: Antioxidant activity against Cu(2+)/GSH-induced DNA damage assessed as TBARS production at 200 uM after 4 hrs relative to control.
Experiment [5] is described as follows: Antioxidant activity against beta-carotene bleaching assessed as decrease of absorbance at 0.3 mM after 100 mins relative to control. Details: scale not given: the % may be the effect or the level left.
The nature of experiment [6]: Antioxidant activity against AAPH-induced linoleic acid oxidation assessed as exhausted methyl linoleate at 2 mM after 4 hrs relative to control.
Experiment [7] in a line: Antioxidant activity against AAPH-induced DNA damage assessed as TBARS production at 200 uM after 4 hrs relative to control.
Experiment [8] is described as follows: Antioxidant activity assessed as residual galvinoxyl radical scavenging activity at 1.5 mM after 30 mins relative to control.

In the case of `O=C(O)c1cnc2c(Cl)ccc(Cl)c2c1O`, the Activity in experiment [1] came out at 99.9%; in experiment [2] it was 94.1%; in experiment [3], 84.6%; in experiment [4], 103%; in experiment [5], 77.3%; in experiment [6] it was 62.7%. For the same compound, the Activity is 95.4% in experiment [7] and 104% in experiment [8].

Consider `O=C(O)c1cnc2ccccc2c1O`, for which the Activity in experiment [1] turned out to be 101%; in experiment [2] it was 94.6%; in experiment [3], 90.4%; in experiment [4] it was 96.6%; in experiment [5], 77.3%; in experiment [6], 113%. The Activity in experiment [7] was found to be 103%; in experiment [8], 102%.

Take `O=C(O)c1cnc2c(Cl)cc(Cl)cc2c1O`: the Activity is 104% in experiment [1]; 93.8% in experiment [2]; 83.3% in experiment [3]; 95.4% in experiment [4]; 129% in experiment [5]; 7.3% in experiment [6]. For the same compound, the values for the Activity in experiment [7] and in experiment [8] were 99.4% and 104%, respectively.

In the case of `O=C(O)c1cnc2c(Cl)c(Cl)ccc2c1O`, the Activity in experiment [1] was 97.5%; in experiment [2], 93.4%; in experiment [3], 88.7%; in experiment [4] it was 111%; in experiment [5] it was 108%; in experiment [6], 41.9%. Further, the Activity in experiment [7] is 97.9%; in experiment [8], 102%.

Regarding `O=C(O)c1cnc2cc(Cl)cc(Cl)c2c1O`, the Activity in experiment [1] is 90%; in experiment [2], 91.2%; in experiment [3], 92.7%; in experiment [4], 98.3%; in experiment [5], 77.3%; in experiment [6], 111%. Further, the Activity in experiment [7] is 98.6%; in experiment [8], 93.5%.

For `O=C(O)c1cnc2cc(Cl)ccc2c1O`, the Activity in experiment [1] was 102%; in experiment [2], 94.7%; in experiment [3], 102%; in experiment [4], 88.9%; in experiment [5], 91.1%; in experiment [6], 107%. Besides, the Activity in experiment [7] came out at 95%; in experiment [8], 104%.
